From PMC11237694, “Novel pentafluorosulfanyl-containing triclocarban analogs selectively kill Gram-positive bacteria” (Microbiology Spectrum, 2024) come the findings set out here.

The subject of one data set is P. aeruginosa. The data set is described as follows: Membrane permeability, propidium iodide staining. As to conditions: Gram-negative P. aeruginosa; MIC concentration, 1 hour. The format is cell-based, Pseudomonas aeruginosa. On the procedure:
(§1) For assessing membrane permeability, PI (Invitrogen, Eugene, Oregon, USA) served as the fluorescent reporter dye. Increased PI fluorescence readings are indicative of heightened membrane disruption and permeability, as PI can penetrate cells, bind to DNA, and remain within the cells ([29], [30]). Bacteria were cultured in 3 mL of Mueller-Hinton broth (MHB) and incubated at 37°C for approximately 3 hours in a shaker incubator (150 rpm) until reaching an OD600 (optical density) of 0.08. […] All treated and control groups were incubated at 37°C for 1 hour in a shaker incubator (150 rpm). Ciprofloxacin and gentamycin were employed as internal controls, as they are known not to target the bacterial cell membrane in the initial steps. After incubation, the samples were centrifuged, washed with PBS (10,000 × g for 2 minutes), and bacteria were stained with 0.08 mM PI for 5 minutes at 21°C in the dark. Subsequently, 10 µL of samples were transferred onto slides and examined under a fluorescence microscope (Zeiss Axio Imager Z1) using the same exposure time (640 ms red and 1 s green). Densitometry analysis was conducted using Fiji software (ImageJ).

For data set [1], the system named is S. epidermidis ATCC 12228. The data set is described as follows: Planktonic susceptibility (MIC/MBC), 96-well broth microdilution. As to conditions: for MBC / MIC: Staphylococcus epidermidis; for MBC: ATCC12228; for MIC: ATCC12228, planktonic, overnight 37°C in MHB. In kind it is cell-based, Staphylococcus epidermidis. Here is the method:
(§2) All bacterial strains subjected to testing had been stored at −70°C prior to the experiment. The experiment commenced by streaking small amounts of the frozen bacterial samples onto Muller-Hinton agar (MHA) culture medium (BD Bacto, Oxoid, Basingstoke, UK Cat# X296B) and allowing for overnight incubation. Bacteria were re-cultured on MHA plates as required to confirm colony morphology and lack of contamination. Strains tested were P. aeruginosa ATCC 27853, E. coli ATCC 25922, Staphylococcus aureus ATCC 25923, MRSA ATCC 33591, S. epidermidis ATCC 12228, Klebsiella pneumoniae ATCC, P. mirabilis ATCC 35659, and 10 clinical isolates of MRSA from Foothills Hospital, Calgary, Canada. To prepare for susceptibility testing, a protocol modified from Lemire et al was used ([28]). MHB was swab-inoculated from MHA colonies and shake-incubated until turbid. Dilution of the broth with 0.9% saline was performed as necessary to match a 1.0 McFarland standard.
(§3) MIC and MBC assessments were conducted on all bacterial strains using 96-well microtiter plates. To prepare the wells for bacteria, serial dilutions of the antibacterial agents were carried out along the rows of two microtiter plates. The antibacterials were 2-fold diluted with Mueller-Hinton broth (MHB) in each column, reaching a volume of 75 µL. The 1.0 McFarland standard was diluted 15-fold in MHB, and 75 µL of inoculum was added to the wells treated with antibacterials, resulting in a total volume of 150 µL. The microtiter plates were covered and then shake-incubated overnight at 150 rpm and 37°C. MIC was determined based on visible bacterial growth. In cases of antibacterial opacity or ambiguous results, streaking of well cultures on MHA, overnight incubation, and subsequent comparison with controls were performed. MBC was determined by transferring 3 µL of culture from all MIC microtiter plate wells to 147 µL of Mueller-Hinton broth in fresh plates. These plates were shake-incubated overnight at 150 rpm and 37°C, and bacterial growth was visually inspected.
A general note: Broth dilution looks for growth in wells or tubes with falling amounts of substance.

The next data set concerns MRSA ATCC 33591. The data set is described as above. In kind it is cell-based, methicillin-resistant S. aureus. Particulars: for antibacterial efficacy (in words): MRSA spp.; for MBC / MIC: Staphylococcus aureus, MRSA reference strain; for MIC: planktonic, overnight 37°C in MHB. On the procedure:
as §2
as §3, with “In cases of antibacterial opacity or ambiguous results, streaking of well cultures on MHA, overnight incubation, and subsequent comparison with controls were performed.” left out

Data set [2] in a line: Eukaryotic cell toxicity, MTS assay (CC50). As to conditions: African green monkey, Vero cells, mean of 2 or 3 determinations, read-out: Vero (CC50) in vitro cytotoxicity. In kind it is cell-based. Here is the method:
(§4) Five eukaryotic cell lines were used to determine the cytotoxicity of the compounds: human embryonic lung (HEL) fibroblast cells, human cervixcarinoma-derived HeLa cells, human T-cell leukemia-derived MT4 cells, MDCK cells, and African Green monkey kidney-derived VERO cells. Semi-confluent cell cultures in 96-well plates were exposed to serial dilutions of the compounds or to medium (= no compound control), then incubated at 37°C. Four days later, the cells were inspected by microscopy to determine the MCC, that is, compound concentration that causes a microscopically detectable alteration of normal cell morphology. Next, the MTS cell viability reagent (CellTiter 96 AQueous MTS Reagent from Promega) was added. After 4 hours of incubation at 37°C, OD at 490 nm was recorded in a microplate reader.
A general note: Formazan colour is commonly taken as a measure of viable cells.

The subject of a further data set is MDCK cells. Briefly: Eukaryotic cell toxicity, MTS assay (CC50). The format is cell-based, canine. As to conditions: for cytotoxicity level lower than that of EPB-34: MDCK cells; for CC50: MTS assay, 4 days, mean of 2 or 3 determinations, read-out: MDCK (CC50) in vitro cytotoxicity. On the procedure:
as §4

In data set [3] the test system is Klebsiella pneumoniae ATCC. The data set is described as follows: Planktonic susceptibility (MIC/MBC), 96-well broth microdilution. In kind it is cell-based. As to conditions: K. pneumonia; for MIC: planktonic, overnight 37°C in MHB. On the procedure: as §2, §3
Another data set concerns P. mirabilis ATCC 35659. The data set is described as above. The format is cell-based. As to conditions: Proteus mirabilis; for MBC: ATCC35659; for MIC: ATCC35659, planktonic, overnight 37°C in MHB. On the procedure:
as §2, §3

Data set [4] relates to Staphylococcus aureus ATCC 25923. The data set is described as above. Particulars: S. aureus; for MBC / MIC: Staphylococcus aureus, ATCC25923; for MIC: planktonic, overnight 37°C in MHB. In kind it is cell-based. On the procedure:
as §2, §3

The next data set relates to MRSA. Briefly: Membrane permeability, propidium iodide staining. Particulars: Gram-positive MRSA; MIC concentration, 1 hour. In kind it is cell-based, methicillin-resistant S. aureus. Here is the method: as §1

Converted amounts (≈) assume the structure as drawn. Where two headings read alike, the source gives them in different places.

As a reminder, the MBC is the smallest concentration meeting the test's criterion for killing. A low value points to greater bactericidal potency. For orientation: MIC means the lowest concentration found to suppress growth. Higher therefore signals weaker potency. One may read the CC50 as the concentration at which the toxic effect on the cells reaches its halfway point. Turning to `O=C(Nc1ccc(S(F)(F)(F)(F)F)cc1)Nc1ccc(Cl)c(Cl)c1` [EBP-59], in the data set with P. aeruginosa, the “effect on cell membrane (PI staining)” value is “no effect”. The “antibacterial efficacy (in words)” value (in data set [1]; in the data set on MRSA ATCC 33591; in data set [4]) was “effective” throughout. Besides, the MBC in data set [1] is 10 µM (≈ 4.07 µg/mL); in the data set with MRSA ATCC 33591 it was 20 µM (≈ 8.14 µg/mL); in data set [3], greater than 5 mM; against P. mirabilis ATCC 35659, 2 µM (≈ 0.814 µg/mL); in [4], 6.1 µM (≈ 2.48 µg/mL). The MIC is 4 µM (≈ 1.63 µg/mL) in data set [1]; 2.4 µM (≈ 0.977 µg/mL) in the data set on MRSA ATCC 33591; greater than 5 mM in data set [3]; 2 µM (≈ 0.814 µg/mL) in the data set with P. mirabilis ATCC 35659; less than 0.3 µM in [4]. In data set [2], the cytotoxic concentration (CC50) at 4 days is greater than 4 µM. Besides, in the data set with MDCK cells, the “cytotoxicity level lower than that of EPB-34” value worked out at 2 logs. Further, in the data set with MDCK cells, the 50% cytotoxic concentration (CC50) was greater than 100 µM. Also, in the data set with MRSA, the “cell membrane disruption (PI staining)” value is “effective at cell membrane disruption”.
For `O=C(Nc1ccc(Cl)cc1)Nc1cccc(S(F)(F)(F)(F)F)c1` [EBP-62, 1-(4-chlorophenyl)-3-(3-(pentafluoro-λ^6-sulfanyl)phenyl)urea], the “antibacterial efficacy (in words)” value (in [1]; in the data set on MRSA ATCC 33591; in [4]) was “effective” in each case. In addition, the MBC in data set [1] is 100 µM (≈ 37.3 µg/mL); against MRSA ATCC 33591 it was 76 µM (≈ 28.3 µg/mL); in data set [3] it was greater than 5 mM; in the data set on P. mirabilis ATCC 35659, greater than 5000 µM; in [4], 300 µM (≈ 112 µg/mL). Also, the MIC in data set [1] is 20 µM (≈ 7.45 µg/mL); against MRSA ATCC 33591, 38 µM (≈ 14.2 µg/mL); in data set [3] it was greater than 5 mM; in the data set with P. mirabilis ATCC 35659, greater than 5000 µM; in [4], 0.3 µM (≈ 0.112 µg/mL). The CC50 at 4 days in [2] was greater than 4 µM.
Regarding `O=C(Nc1ccc(Cl)cc1)Nc1ccc(S(F)(F)(F)(F)F)cc1` [EPB-61, 1-(4-Chlorophenyl)-3-(4-(pentafluoro-λ^6-sulfanyl)phenyl)urea], the “effect on cell membrane (PI staining)” value in the data set with P. aeruginosa was “no effect”. Also, the “antibacterial efficacy (in words)” value (in data set [1]; in the data set with MRSA ATCC 33591; in data set [4]) was “effective” each time. The MBC in [1] is 40 µM (≈ 14.9 µg/mL); with MRSA ATCC 33591, 300 µM (≈ 112 µg/mL); in [3], greater than 5 mM; with P. mirabilis ATCC 35659, greater than 5000 µM; in data set [4], 95 µM (≈ 35.4 µg/mL). For the same molecule, the MIC in data set [1] was 1 µM (≈ 0.373 µg/mL); against MRSA ATCC 33591, 160 µM (≈ 59.6 µg/mL); in data set [3], greater than 5 mM; in the data set on P. mirabilis ATCC 35659, greater than 5000 µM; in data set [4], 9.5 µM (≈ 3.54 µg/mL). The cytotoxic concentration (CC50) at 4 days in data set [2] was greater than 4 µM. The “cytotoxicity level lower than that of EPB-34” value in the data set with MDCK cells is 2 logs. Also, in the data set on MDCK cells (listed as EBP-61), the half-maximal cytotoxic concentration (CC50) was greater than 100 µM. Besides, in the data set with MRSA, the “cell membrane disruption (PI staining)” value was “effective at cell membrane disruption”.
